Legend:
Type in all cases: in vivo
[1] = test system: SCG/Kj mice; assay: Action of EPA on the survival rate of SCG/Kj mice as an ANCA model; conditions: SCG/Kj mice fed 5% diet in a free-feeding state from seven weeks old
Text: SCG/Kj mice (seven weeks old) as a spontaneous ANCA vasculitis/nephritis model (Nippon Kayaku Co., Ltd.) were divided into three groups comprising 6 or 7 animals each, and fed on (1) fish meal-free feed F1 (Funakoshi Co., Ltd.) (control group), (2) 5% corn oil diet (manufactured by Sigma Corporation) (corn oil group), or (3) 5% EPA-E diet (diet F1 with 5% EPA-E added thereto) (EPA group) in a free-feeding state so as to observe the survival rate.

[2] = test system: MPO-ANCA; assay: MPO-ANCA in the serum of SCG/Kj mice by ELISA (ANCA production); conditions: 5% EPA-E diet from seven weeks old until completed 11th week of age, absorbance at 405 nm
Description: SCG/Kj mice (seven weeks old) were divided into three groups comprising 6 or 7 animals each, and fed under the same conditions as Example 1 until they completed their 11th week of age. Groups of B6 mice (two animals) and of SCG/Kj mice (15 weeks old; three animals) were further provided, and the five groups were subjected to the absorbance measurement for MPO-ANCA in the serum by an ELISA technique.
The MPO-ANCA titer was measured by following a method having already been reported (Ishida-Okawara, A., Ito-Ihara, T., Muso, E. et al., Neutrophil contribution to the crescentic glomerulonephritis in SCG/Kj mice, Nephrol. Dial. Transplant. 2004; 19: 1708-1715). To put it briefly: Recombinant mouse MPO was coated onto an ELISA plate (Toyoshima Co., Tokyo, Japan) at 4° C. overnight. The plate was blocked with 1% bovine serum albumin (BSA) (Sigma), then incubated at room temperature for 1.5 hours in the presence of mouse serum (50-fold dilution).
Bound MPO-ANCA was detected after an incubation for two hours in the presence of an alkaline phosphatase-labeled anti-mouse IgG antibody (Cappel). Subsequently, the secondary antibody as bound was quantified by measuring the absorbance at 405 nm after an incubation in the presence of 1 mg/ml of p-nitrophenyl phosphate (Sigma).

[3] = test system: Foxp3; assay: mRNA expression level of Foxp3 in the kidneys of SCG/Kj mice (quantitative real-time PCR); conditions: 5% EPA-E diet from seven weeks old until completed 11th week of age
Description: (§1) SCG/Kj mice (seven weeks old) were divided into three groups comprising 6 or 7 animals each, and fed under the same conditions as Example 1 until they completed their 11th week of age. The mRNA expression levels of PD-1, PD-L1, PD-L2, Foxp3, and CTLA4 in the kidneys, lungs and spleens of the mice were evaluated.
(§2) A frozen kidney was homogenized in a TRIzol® reagent (Invitrogen, Carlsbad, Calif.). Total RNA was prepared from the homogenate, and purified using PureLink Micro-to-Midi Total RNA Purification System (Invitrogen). SuperScript™ III first-strand synthesis system (Invitrogen) was used to prepare cDNA from the purified total RNA, and quantitative real-time PCR was conducted with ABI Prism® 7000 (Applied Biosystems, Foster City, Calif.). For primers and probes for PCR, TaqMan® gene expression assays (Applied Biosystems) were used.

[4] = test system: PD-1; assay: mRNA expression level of PD-1 in the kidneys of SCG/Kj mice (quantitative real-time PCR); conditions: 5% EPA-E diet from seven weeks old until completed 11th week of age
Description: as §1, §2

[5] = test system: PD-L1; assay: mRNA expression level of PD-L1 in the kidneys of SCG/Kj mice (quantitative real-time PCR); conditions: 5% EPA-E diet from seven weeks old until completed 11th week of age
Description: as §1, §2

[6] = test system: PD-L2; assay: mRNA expression level of PD-L2 in the kidneys of SCG/Kj mice (quantitative real-time PCR); conditions: 5% EPA-E diet from seven weeks old until completed 11th week of age
Description: as §1, §2

[7] = test system: CTLA4; assay: mRNA expression level of CTLA4 in the kidneys of SCG/Kj mice (quantitative real-time PCR); conditions: 5% EPA-E diet from seven weeks old until completed 11th week of age
Description: as §1, §2

**Q.** With `CC/C=C\C/C=C\C/C=C\C/C=C\C/C=C\CCCC(=O)OCC` [EPA-E, ethyl icosapentate ester] as the compound, how does the “age at which the survival rate began to decrease” value [1] read?
**A.** about 15 weeks old

**Q.** What about the survival-prolonging effect [1] of the same compound?
**A.** has a survival-prolonging effect

**Q.** What about the “ANCA levels relative to normal mice (B6)” value [2] of the same compound?
**A.** comparable to those of the normal mice (B6)

**Q.** And the “ANCA production as compared with the control group and the corn oil group” value [2]?
**A.** evidently suppressed

**Q.** And the “Foxp3 mRNA expression level in the kidney as compared with the control group” value [3]?
**A.** significantly increased

**Q.** What about the “PD-1 mRNA expression level in the kidney as compared with the control group” value [4] of the same compound?
**A.** likely to be increased

**Q.** What about the “PD-L1 mRNA expression level in the kidney as compared with the control group” value [5] of the same compound?
**A.** likely to be increased

**Q.** What about the “PD-L2 mRNA expression level in the kidney as compared with the control group” value [6] of the same compound?
**A.** likely to be increased

**Q.** What about the “CTLA4 mRNA expression level in the kidney as compared with the control group” value [7] of the same compound?
**A.** likely to be increased
